Measured values from the supplement of paper PMC8671470.
Counter-ions that a name gives are not always drawn.

Assays:
Conditions in all cases: 72 h
[1] = tested on: MV4-11; experiment: cell viability (% survival relative to DMSO control, bortezomib = 0%); higher = less cytotoxic
Summary of the method: (§1)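 Percent survival is reported as the mean of duplicate wells. Cells from 10 AML and 5 CML lines were plated in 384-well plates containing compounds at 1, 10, 100, 1000 or 10000 nM and kept for 72 h at 37 °C in 5% CO2. Readout used CellTiter-Glo luminescence, scaled so that vehicle equals 100% and a 10 µM positive control equals 0%.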

[2] = tested on: K-562; experiment: as above
Summary of the method: as §1

[3] = tested on: NOMO-1; experiment: as above
Summary of the method: as §1

[4] = tested on: KCL-22; experiment: as above
Summary of the method: as §1

[5] = tested on: SHI-1; experiment: as above
Summary of the method: as §1

[6] = tested on: LAMA-84; experiment: as above
Summary of the method: as §1

[7] = tested on: ML-2; experiment: as above
Summary of the method: as §1

[8] = tested on: Mono-Mac-6; experiment: as above
Summary of the method: as §1

[9] = tested on: KG-1; experiment: as above
Summary of the method: as §1

[10] = tested on: BV-173; experiment: as above
Summary of the method: as §1

[11] = tested on: THP-1; experiment: as above
Summary of the method: as §1

[12] = tested on: HEL; experiment: as above
Summary of the method: as §1

[13] = tested on: HL-60; experiment: as above
Summary of the method: as §1

[14] = tested on: MOLM-13; experiment: as above
Summary of the method: as §1

[15] = tested on: KU-812; experiment: as above
Summary of the method: as §1

[16] = tested on: NOMO-1
Summary of the method: (§2)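 Seeded in RPMI 1640 at densities within the linear growth range, fifteen myeloid leukaemia cell lines were dispensed into 384-well plates with acoustically pre-printed compounds spanning five tenfold doses from 1 to 10,000 nM, in duplicate. The plates were kept for 72 h at 37 °C in 5% CO2 before luminescent ATP viability was measured and normalised to vehicle and to a positive control at 10 µM. Curves were fitted with a four-parameter log-logistic model. The IC50 was taken from those curves.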

[17] = tested on: KCL-22
Summary of the method: as §2

[18] = tested on: ML-2
Summary of the method: as §2

[19] = tested on: KG-1
Summary of the method: as §2

[20] = tested on: HL-60
Summary of the method: as §2

[21] = tested on: HL-60; experiment: cell viability (% survival relative to DMSO control); higher = less cytotoxic
Summary of the method: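 HL-60 cells grown in RPMI 1640 with 10% FBS were rescreened against the full library in 384-well plates, in duplicate, at five tenfold concentrations from 1 to 10,000 nM, alongside DMSO or 100 nM of one of three metabolic inhibitors for 72 h at 37 °C, 5% CO2. Reference wells contained DMSO or 10 μM proteasome inhibitor. Viability was read with CellTiter-Glo and normalised to these reference wells, and where reported, area under the curve was taken from four-parameter log-logistic fits in drc and PharmacoGx.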

CCN(CCO)CCCC(C)Nc1ccnc2cc(Cl)ccc12 (stereo not given) [Hydroxychloroquine sulfate]
cell viability [%]
Conditions	1 nM	10 nM	100 nM	1000 nM	10000 nM
[1]	78.8	112	93.2	102	106
[2]	84.1	97.8	105	101	111
[3]	94.4	106	98.8	94.9	98.2
[4]	88.5	113	99.1	119	99.3
[5]	95.5	106	101	127	104
[6]	87	108	106	94.9	93.6
[7]	92.7	128	92.2	106	105
[8]	92.7	104	91.8	88.2	86.7
[9]	95.1	108	94.6	112	114
[10]	79.7	107	97.6	84.3	94.8
[11]	91.5	106	102	92.2	110
[12]	89.5	102	99	128	98
[13]	125	101	96.5	98.5	84.1
[14]	81	117	91.8	127	108
[15]	93	103	105	99	97

Conditions	IC50 (cell viability) [µM]
[16]	> 10
[17]	> 10
[18]	> 10
[19]	> 10
[20]	> 10

cell viability [%], [21]
Conditions	0.001 µM	0.01 µM	0.1 µM	1 µM	10 µM
co-treatment: AZD3965 100 nM	91.8	97.2	105	96.7	101
co-treatment: DMSO vehicle	92.3	98.9	101	98.9	99.8
co-treatment: GSK2194069 100 nM	97	101	111	99.5	104
co-treatment: pictilisib 100 nM	86.1	101	109	107	103
